Measured values published in patent publication US20240424053A1, “METHODS AND COMPOSITIONS FOR PROVIDING MYOCARDIAL PROTECTION AND TREATING MYOCARDIAL STRESS AND FIBROSIS” (Tufts Medical Center, Inc., priority 2021, published 2024).
Read-outs that look alike come from different tables or passages of the source. Where a SMILES comes first, the peptide text is derived from it. The star is where a group is joined. Palmitoyl = CCCCCCCCCCCCCCCC(=O)*

Experiments:
[1] = target: T1, PAR1 (Homo sapiens, UniProt P25116); test: NT-proBNP plasma levels in heart failure subset of TRIP-PCI; format: in vivo; details: 24 hours after single dose (0.3 or 0.5 mg/kg combined), HF patients n=5, P=0.02
T1 construct: delivered intravenously in 100 patients with coronary artery disease (CAD) and acute coronary syndrome (ACS) undergoing cardiac catheterization; endogenous in cells; host or cells: patients of the TRIP-PCI trial (platelets ex vivo; whole body in vivo)
T1 sequence (P25116 22-425): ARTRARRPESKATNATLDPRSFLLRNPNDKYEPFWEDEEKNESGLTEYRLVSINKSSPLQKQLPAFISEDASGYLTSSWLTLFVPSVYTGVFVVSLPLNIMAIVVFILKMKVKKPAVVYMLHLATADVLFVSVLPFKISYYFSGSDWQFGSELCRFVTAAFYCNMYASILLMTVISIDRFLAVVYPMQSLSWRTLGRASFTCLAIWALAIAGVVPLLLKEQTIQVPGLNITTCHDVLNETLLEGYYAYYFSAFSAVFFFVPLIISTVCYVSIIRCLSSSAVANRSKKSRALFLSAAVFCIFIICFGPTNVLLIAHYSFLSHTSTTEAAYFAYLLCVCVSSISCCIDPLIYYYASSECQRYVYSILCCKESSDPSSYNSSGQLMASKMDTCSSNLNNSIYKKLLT
Method: Data was analyzed by 2-sided paired T-tests. Normal levels of NT-proBNP ≤125 pg/mL.
The TRIP-PCI (Thrombin Receptor Inhibitory Pepducin in PCI) Phase 2 trial (Kuliopulos et al., Arterioscler. Thromb. Vasc. Biol. 40(12):2990-3003, 2020), which enrolled a subset of patients with HF, was conducted to assess the safety, target engagement, and efficacy of PZ-128 in patients undergoing cardiac catheterization with intent to perform percutaneous coronary intervention (PCI). As explained above, in this randomized, double-blind, placebo-controlled, phase 2 trial, 100 patients were randomly assigned (2:1) to receive PZ-128 (0.3 mg/kg or 0.5 mg/kg), or placebo in a two-hour infusion initiated just prior to the start of cardiac catheterization. […]
In the BNP multinational study of 1568 patients presenting with dyspnea to the emergency department, BNP and NT-proBNP were the single most accurate predictors of diagnosis and severity of ADHF, and are used as a well-validated surrogate clinical efficacy endpoint in human trials (Ibrahim et al., Circ. Res. 123(5):614-629, 2018; Ibrahim et al., Circ. Heart Fail. 9(9), 2016). NT-proBNP levels were measured at baseline and 24 hours after the PZ-128 or placebo infusion was initiated and the cardiac catheterization procedure completed in the subset of patients with heart failure. […]

[2] = target: T2, PAR1 (Mus musculus, UniProt P30558); test: myocardial ischemia (30 min left coronary artery occlusion) / 2 h reperfusion in mice; format: in vivo; details: 10 mg/kg sc before ischemia
T2 construct: endogenous in cells; host or cells: male C57BL/6N mice, in vivo
T2 sequence (P30558 22-430): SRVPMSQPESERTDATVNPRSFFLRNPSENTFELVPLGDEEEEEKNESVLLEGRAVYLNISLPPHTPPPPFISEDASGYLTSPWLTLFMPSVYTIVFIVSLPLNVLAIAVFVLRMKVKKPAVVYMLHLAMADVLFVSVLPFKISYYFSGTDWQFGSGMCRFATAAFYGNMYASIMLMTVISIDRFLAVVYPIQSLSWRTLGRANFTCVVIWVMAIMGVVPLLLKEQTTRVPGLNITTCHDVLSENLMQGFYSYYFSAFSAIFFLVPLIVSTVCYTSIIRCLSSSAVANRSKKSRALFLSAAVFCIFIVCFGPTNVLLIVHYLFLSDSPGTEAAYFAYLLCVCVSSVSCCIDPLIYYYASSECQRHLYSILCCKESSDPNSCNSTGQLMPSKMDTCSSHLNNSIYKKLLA
Method: FIGS. 1A-E show protection against cardiac myocardial injury by PZ-128 in mice. […] Images were quantified using ImageJ and adjusted by weight of each cardiac slice. Data are shown as mean±SD and analyzed by two-tailed Student's t-test: **p<0.01, ***p<0.001.
A role of PAR1 in directly mediating cardiac ischemic myonecrosis—independent of established platelet-dependent effects (Strande et al., Basic Res. Cardiol. 102(4):350-358, 2007)—was also examined. […] Mice (n=7) were treated with vehicle or 10 mg/kg PZ-128 (subcutaneous; sc) just prior to ischemic injury. As shown in FIG. 1a-d, PZ-128-treated mice had 51-62% reductions in mean cardiac Infarct Area (p<0.01), Area At Risk (p<0.01), and Total Ischemic Area (p<0.0001) compared to vehicle-treated mice. […] Using echocardiography after 3 days of reperfusion, there was a significant increase in left ventricular mass (p<0.05) in vehicle compared to PZ-128 treated cohorts, with no difference in left ventricular mass between baseline and 3 days in the PZ-128 cohort (FIG. 2). […] Previous pharmacokinetic studies of subcutaneously administered PZ-128 in mice were the basis of this 10 mg/kg dose in mice (Cisowski et al., Am. J. Pathol. 179(1):513-523, 2011), selected to match the 0.3-0.5 mg/kg doses administered in humans.
Eight-week male C57BL/6N mice were vehicle (20% DMSO) or 10 mg/kg PZ-128 1 h before cardiac surgery (n=7 per group). The left coronary artery was occluded for 30 min with a ligature left in place during reperfusion. Blood flow was restored for 2 h, then the left coronary artery was reoccluded, and 5% Evans blue dye was injected via the aorta. Hearts were frozen and sectioned in OTC, before incubation in TTC for 10 min at 37° C. (a) Sections were digitally scanned and the area of white (b—Infarct area=1), red (c—Area at Risk=AAR), white+red (d—total Ischemic area), and blue (e—Reperfusion area=R) quantified using ImageJ and adjusted by weight of each cardiac slice. Data are shown as mean±SD and analyzed by two-tailed Student's t-test: **p<0.01, ***p<0.001.

[3] = target: T1, PAR1; details: cited from earlier work

Question: Which results are given for `CCCCCCCCCCCCCCCC(=O)N[C@@H](CCCCN)C(=O)N[C@@H](CCCCN)C(=O)N[C@@H](CO)C(=O)N[C@@H](CCCNC(=N)N)C(=O)N[C@@H](C)C(=O)N[C@@H](CC(C)C)C(=O)N[C@@H](Cc1ccccc1)C(N)=O` [PZ-128, Palmitate-KKSRALF-NH2] (Palmitoyl-KKSRALF-NH2)?
Answer: change in NT-proBNP levels [1]: significant mean drop; reduction in mean Total Ischemic Area vs vehicle ([2]; n=7, p<0.0001): 51-62%; increase in total area of cardiac muscle able to be reperfused vs vehicle ([2]; n=7, p<0.001): 50%; reduction in mean Area At Risk vs vehicle ([2]; n=7, p<0.01): 51-62%; reduction in mean cardiac Infarct Area vs vehicle ([2]; n=7, p<0.01): 51-62%; overall safety and tolerability ([3]; 0.3 and 0.5 mg/kg, single 2-h intravenous infusion, 100 patients): safe and well-tolerated; hazard ratio of a MACE/myonecrosis event versus placebo ([3]; PZ-128 treated groups, nonsignificant decrease): 0.81; major adverse coronary events (MACE) ([3]; at 30 days, combined PZ-128 dose groups (placebo 6%, P=0.13)): 0%; major adverse coronary events (MACE) ([3]; at 90 days, combined PZ-128 dose groups (placebo 6%, P=0.29)): 2%; MACE and myocardial injury within 30 days ([3]; subgroup with elevated baseline cardiac troponin I (placebo 83%, P=0.02)): 31%; primary safety endpoint: bleeding vs vehicle ([3]; up to 30 days posttreatment): not significantly different
